Laboratory results: US20250171516A1, “PEPTIDE ACIDS AS A GLP1R AGONIST AND ANTIBODY-DRUG CONJUGATES THEREOF” (Regeneron Pharmaceuticals, Inc., priority 2023, published 2025)
Non-standard residues stand in square brackets, D forms with d. Groups on a side chain read outwards from the residue. No end group written: not given here. AA10 = not defined here; AA1 = not defined here; AA2 = not defined here; AA6 = not defined here; AA9 = not defined here

Assays:
[1] = Metabolite study in human liver S9 (high resolution LC-MS); assay type: in vitro ADME
Protocol: Metabolite studies were conducted using Q-M3190 and Q-6009 (Q is Glutamine).
Liver S9 is the supernatant obtained by grinding and centrifuging the liver cells. The enzymes content is lower compared to Hepatocytes. It mainly contains CYP enzymes and some biphasic enzymes (but no biphasic coenzyme), so additional coenzyme (NADPH and UDPGA, etc.) is needed to mediate the biphasic reaction.

GLP-1R [2] = target: T1, GLP-1R (Homo sapiens, UniProt P43220); assay: GLP-1R cAMP assay of peptides (Tables 10, 14, 15); assay type: cell-based
T1 sequence (P43220 24-463): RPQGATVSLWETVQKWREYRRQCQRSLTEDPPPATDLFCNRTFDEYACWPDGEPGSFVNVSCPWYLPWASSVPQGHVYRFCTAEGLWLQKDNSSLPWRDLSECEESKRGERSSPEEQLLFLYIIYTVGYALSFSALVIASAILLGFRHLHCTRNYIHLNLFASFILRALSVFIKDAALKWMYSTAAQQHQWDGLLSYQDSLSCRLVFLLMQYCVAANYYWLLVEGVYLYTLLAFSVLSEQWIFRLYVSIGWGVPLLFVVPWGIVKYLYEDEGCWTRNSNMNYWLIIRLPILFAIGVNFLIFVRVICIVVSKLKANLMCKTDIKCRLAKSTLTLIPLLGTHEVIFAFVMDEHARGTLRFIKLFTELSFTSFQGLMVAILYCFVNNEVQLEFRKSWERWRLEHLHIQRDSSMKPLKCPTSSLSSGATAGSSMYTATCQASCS

GLP-1R [3] = target: T1, GLP-1R; assay: b-arrestin 2 recruitment enzyme fragment complementation assay in HEK293/b-arrestin2/hGLP1R cells; assay type: cell-based; set-up: The full-length human GLP1R (NP_002053.3) with a C-terminus fusion to a small b-gal fragment called enzyme donor or ProLink (PK); host or cells: HEK293/b-arrestin2-EA (HEK293/Barrestin clone 2C6/hGLP1R-Prolink1 high sorted, ACL21687)
Text: To test the recruitment of b-arrestin 1 and b-arrestin 2 to GLP1R upon receptor activation, two enzyme fragment complementation assays were developed. To generate the assay cell lines, b-arrestin 1 fused to the b-galactosidase (b-gal) reporter fragment called enzyme acceptor (EA) (i.e., b-arrestin1-EA) or b-arrestin 2 fused to the b-gal reporter fragment EA (i.e., b-arrestin2-EA) were transduced into HEK293 cells using PathHunter b-Arrestinl Retroparticles (DiscoverX, #83-OT-TB-N-01) or PathHunter b-Arrestin2 Retroparticles (DiscoverX, #93-1087), respectively. The full-length human GLP1R (NP_002053.3) with a C-terminus fusion to a small b-gal fragment called enzyme donor or ProLink (PK) (i.e., hGLP1R-PK) was then engineered into HEK293/b-arrestinl-EA cells and HEK293/b-arrestin2-EA cells to generate the cell lines referred herein as HEK293/b-arrestin1/hGLP1R and HEK293/b-arrestin2/hGLP1R. Recruitment of b-arrestin 1 or b-arrestin 2 to GLP1R in these reporter cell lines brings both b-gal fragments (EA and PK) into close proximity, leading to reconstitution of a fully functional enzyme capable of hydrolyzing a substrate and generating a chemiluminescent signal.
(§1) For all assays, cells were seeded into 384-well plates (Falcon #353988) at 6,000 cells/well in assay media (Opti-MEM, 1% FBS, 1×Penicillin-Streptomycin) and incubated overnight at 37° C. Serial dilutions of the anti-GLP1R ATLs and non-binding control ATLs were performed in assay media. Serial dilutions of linker-payloads (LPs) were performed in 100% DMSO (ATCC, #4-X-5), followed by 1:100 dilution in assay media. Test articles were added to cells (1:5 dilution) using VIAFLO 384 (Integra) with the last well in each serial dilution series serving as a blank control containing only assay media for ATLs or assay media with 0.2% DMSO for LPs. The blank was plotted as a continuation of the serial dilution.
For b-arrestin 1 and b-arrestin 2 recruitment assays, after a 1-hour incubation at 37° C., PathHunter Detection Reagent (Eurofins DiscoverX, #93-0001) was added to the wells followed by a 1-hour incubation at room temperature. RLUs were measured on EnVision Plate Reader (Perkin Elmer).
(§2) EC50 values for luminescence assays were determined using a four-parameter logistic equation over a 12-point dose response curve (GraphPad Prism).

GLP-1R [4] = target: T1, GLP-1R; assay: CRE-Luc cAMP responsive luciferase reporter assay in HEK293/CRE-Luc/hGLP1R cells; assay type: cell-based; set-up: engineered to express full-length human GLP1R (GenBank: AAI12127.1) (HEK293/CRE-Luc/hGLP1R); expressed in transfected cells; host or cells: HEK293/CRE-Luc (HEK293/FSC11/pCDNA3.1 + GLP1R, ACL6822); conditions: for Emax: HEK293, read-out: Emax (% GLP-1), CRE-dependent reporter activity, HEK293/CRE-Luc/hGLP1R
Text: To test the activity of GLP1R agonist linker-payloads (LPs) and anti-GLP1R antibody-tethered ligands (ATLs) of the invention, a cell-based cAMP responsive luciferase reporter assay was developed. To generate the assay cell line, the firefly luciferase gene was placed under the control of four copies of a cAMP response element (4×CRE) located upstream of a minimal promoter and transfected into HEK293 cells and referred to herein as HEK293/CRE-Luc cells. HEK293/CRE-Luc cells were then engineered to express full-length human GLP1R (GenBank: AAI12127.1) (HEK293/CRE-Luc/hGLP1R).
as §1
For the CRE-Luc assay, after a 5-hours incubation at 37° C., luciferase activity was determined by addition of ONE-Glo reagent (Promega, #E6130) followed by measurement of relative light units (RLUs) on EnVision Plate Reader (Perkin Elmer).
as §2

[5] = target: GLP-1R of the cAMP assay of Tables 10, 14 and 15 (human, UniProt P43220 24-463, limits assumed); assay: cell-based or functional assay
[6] = target: full-length human GLP1R (GenBank: AAI12127.1) expressed on HEK293/CRE-Luc/hGLP1R cells (human, UniProt P43220 24-463); assay: cell-based or functional assay
[7] = metabolites of Q-M3190 at 4 hours in human liver S9
[8] = HEK293, read-out: Emax (% GLP-1), b-Arrestin2 recruitment, HEK293/b-arrestin2/hGLP1R
[9] = metabolites of Q-M6009 at 4 hours in human liver S9

Molecule: CCc1cc(OCCCCn2cc(COCCOCCOCCOCCOCCOCCOCCOCCNC(=O)CCC(N)C(=O)O)nn2)ccc1-c1ccc(C[C@H](NC(=O)[C@H](CC(=O)O)NC(=O)[C@H](CO)NC(=O)[C@@H](NC(=O)C(C)(Cc2ccccc2F)NC(=O)[C@@H](NC(=O)CNC(=O)[C@H](Cc2nn[nH]n2)NC(=O)C(C)(C)C(=O)NCCc2cnc[nH]2)[C@@H](C)O)[C@@H](C)O)C(=O)N[C@@H](CCCc2cc(C)cc(C)c2)C(N)=O)cc1 (stereo partly drawn) [M6067]
- Relative Abundance (% Total) [1, 7]: 56.51 % Total

Molecule: CCc1cc(OCCCCn2cc(COCCOCCOCCOCCOCCOCCOCCOCCN)nn2)ccc1-c1ccc(C[C@H](NC(=O)[C@H](CC(=O)O)NC(=O)[C@H](CO)NC(=O)[C@@H](NC(=O)[C@](C)(Cc2ccccc2F)NC(=O)[C@@H](NC(=O)CNC(=O)[C@H](Cc2nn[nH]n2)NC(=O)C(C)(C)C(=O)NCCc2cnc[nH]2)[C@@H](C)O)[C@@H](C)O)C(=O)N[C@@H](CCCc2cc(C)cc(C)c2)C(N)=O)cc1 [M3190]
- EC50 (GLP-1R [2]; Table 14, peptide amides, read-out: cAMP EC50): 0.318 nM
- Relative Abundance (% Total) [1, 7]: 2.76 % Total
- Emax (GLP-1R [3]; [8]): 128%
- EC50 (GLP-1R [3]; HEK293/b-arrestin2/hGLP1R cells, read-out: b-arrestin 2 recruitment EC50): 3.51e-08 M
- Emax (GLP-1R [3]; read-out: b-arrestin 2 recruitment Emax relative to GLP-1, HEK293/b-arrestin2/hGLP1R cells): 128%
- Emax (GLP-1R [4]): 96.3%
- EC50 (GLP-1R [4]; HEK293/CRE-Luc/hGLP1R cells, independent experiments A, B, C, read-out: EC50 (M), CRE-dependent reporter activity, HEK293/CRE-Luc/hGLP1R): 5.76e-10 M
- EC50 (GLP-1R [4]; HEK293/CRE-Luc/hGLP1R cells, read-out: CRE-dependent luciferase reporter activity EC50): 5.76e-10 M

Molecule: C[C@@H](O)[C@H](NC(=O)CNC(=O)[C@H](Cc1nn[nH]n1)NC(=O)C(C)(C)C(=O)NCCc1cnc[nH]1)C(=O)N[C@@](C)(Cc1ccccc1F)C(=O)N[C@H](C(=O)N[C@@H](CO)C(=O)N[C@@H](CC(=O)O)C(=O)O)[C@@H](C)O [AA10-AA(-AA8-AA7-AA6-AA5-AA4-AA3]
- Relative Abundance (% Total) [1, 9]: 0.21 % Total

Molecule: CCc1cc(OCCCCn2cc(COCCOCCOCCOCCOCCOCCOCCOCCNC(=O)CC[C@H](N)C(=O)O)nn2)ccc1-c1ccc(C[C@H](NC(=O)[C@H](CC(=O)O)NC(=O)[C@H](CO)NC(=O)[C@@H](NC(=O)C(C)(Cc2ccccc2F)NC(=O)[C@@H](NC(=O)CNC(=O)[C@H](Cc2nn[nH]n2)NC(=O)C(C)(C)C(=O)NCCc2cnc[nH]2)[C@@H](C)O)[C@@H](C)O)C(=O)N[C@@H](CCCc2cc(C)cc(C)c2)C(=O)O)cc1 (stereo partly drawn) [Q-M6009]
- GLP-1R CAMP Max (GLP-1R [2]; Table 10): 106.2%
- EC50 (GLP-1R [2]; Table 10, read-out: GLP-1R CAMP EC50): 3.21 nM
- Relative Abundance (% Total) [1, 7]: 38.40 % Total
- Relative Abundance (% Total) [1, 9]: 79.84 % Total

Molecule: Cc1cc(OCCOCCOCCOCCOCCOCCOCCOCCN)ccc1-c1ccc(C[C@H](NC(=O)[C@H](CC(=O)O)NC(=O)[C@H](CO)NC(=O)[C@@H](NC(=O)C(C)(Cc2ccccc2F)NC(=O)[C@@H](NC(=O)CNC(=O)[C@H](Cc2nnn[nH]2)NC(=O)C(C)(C)C(=O)NCCc2cnc[nH]2)[C@@H](C)O)[C@@H](C)O)C(=O)O)cc1 (stereo partly drawn) [M6447]
- Emax (GLP-1R [3]; [8]): 0.3%
- b-arrestin 2 recruitment (in words) (GLP-1R [3]; HEK293/b-arrestin2/hGLP1R cells): recruited very low levels of b-arrestin 2
- EC50 (GLP-1R [3]; HEK293/b-arrestin2/hGLP1R cells, independent experiments A, B, read-out: EC50 (M), b-Arrestin2 recruitment, HEK293/b-arrestin2/hGLP1R): > 1e-06 M
- EC50 (GLP-1R [4]): > 1e-06 M
- Emax (GLP-1R [4]): 9.8%
- CRE-dependent luciferase reporter activity (in words) (GLP-1R [4]; HEK293/CRE-Luc/hGLP1R cells): very weak activator of CRE-dependent luciferase reporter activity

B1: AA10-AA9-AA8-AA7-AA6-AA5-AA4-AA3-(LLQ-L)AA2-OH (peptide)
peptide: [AA10][AA9]GT[AA6]TSD[AA2]([Leu-Gln-Leu-Leu])-OH
modifications: reading uncertain; also: printed as AA10-AA9-AA8-AA7-AA6-AA5-AA4-AA3-(LLQ-L)AA2-OH
- GLP-1R CAMP EC50 [5]: > 1000 nM
- GLP-1R CAMP Max (%) [5]: 33.9%

B2: AA10-AA9-AA8-AA7-AA6-AA5-AA4-AA3-AA2-OH (peptide)
peptide: [AA10][AA9]GT[AA6]TSDX-OH
modifications: not fully specified (residue 9); printed as AA10-AA9-AA8-AA7-AA6-AA5-AA4-AA3-AA2-OH
- GLP-1R CAMP EC50 [5]: 51.2 nM
- GLP-1R CAMP Max (%) [5]: 97.9%

B3: Q-M6009 (AA10-AA9-AA8-AA7-AA6-AA5-AA4-AA3-(Q-L)AA2-AA1-OH) (peptide)
peptide: XXGTXTSDXX-OH
modifications: not fully specified (residues 1, 2, 5, 9, 10); printed as Q-M6009 (AA10-AA9-AA8-AA7-AA6-AA5-AA4-AA3-(Q-L)AA2-AA1-OH)
- GLP-1R CAMP EC50 [5]: 3.21 nM
- GLP-1R CAMP Max (%) [5]: 106%

B4: AA10-AA9-AA8-AA7-AA6-AA5-AA4-AA3-AA2-AA1-OH (peptide)
peptide: [AA10][AA9]GT[AA6]TXD[AA2][AA1]-OH
modifications: not fully specified (residue 7); printed as AA10-AA9-AA8-AA7-AA6-AA5-AA4-AA3-AA2-AA1-OH; also: AA2 azidobutoxy
- GLP-1R CAMP EC50 [5]: 2.94 nM
- GLP-1R CAMP Max (%) [5]: 122%

B5: AA10-AA9-AA8-AA7-AA6-AA5-AA4-AA3-(Q-L)AA2-OH (peptide)
peptide: [AA10][AA9]GT[AA6]TSD[AA2]([Leu-Gln])-OH
modifications: reading uncertain; also: printed as AA10-AA9-AA8-AA7-AA6-AA5-AA4-AA3-(Q-L)AA2-OH
- GLP-1R CAMP EC50 [5]: > 1000 nM
- GLP-1R CAMP Max (%) [5]: 29.2%

B6: M6009 (AA10-AA9-AA8-AA7-AA6-AA5-AA4-AA3-(L)AA2-AA1-OH) (peptide)
peptide: [AA10][AA9]GT[AA6]TSD[AA2](Leu)[AA1]-OH
modifications: reading uncertain; also: also named NH2-PEG8-triazole-P8 acid, printed as M6009 (AA10-AA9-AA8-AA7-AA6-AA5-AA4-AA3-(L)AA2-AA1-OH)
- EC50 (M), CRE-dependent reporter activity, HEK293/CRE-Luc/hGLP1R [6]: 4.64e-10 M
- Emax (% GLP-1), CRE-dependent reporter activity, HEK293/CRE-Luc/hGLP1R [6]: 92.1 % GLP-1
- GLP-1R CAMP EC50 [5]: 2.23 nM
- GLP-1R CAMP Max (%) [5]: 140%

B7: LLQ-M6009 (AA10-AA9-AA8-AA7-AA6-AA5-AA4-AA3-(LLQ-L)AA2-AA1-OH) (peptide)
peptide: [AA10][AA9]GT[AA6]TSD[AA2]([Leu-Gln-Leu-Leu])[AA1]-OH
modifications: reading uncertain; also: printed as LLQ-M6009 (AA10-AA9-AA8-AA7-AA6-AA5-AA4-AA3-(LLQ-L)AA2-AA1-OH)
- GLP-1R CAMP EC50 [5]: 13.4 nM
- GLP-1R CAMP Max (%) [5]: 104%
